From patent US8420657B2 (Novartis AG, priority 2008, dated 2013)
pIC50: −log10 of the molar value.

System: JAK1/JAK2-dependent nuclear translocation of STAT1-GFP in HT1080 fibrosarcoma cells
Test: STAT1 nuclear translocation assay (Cellomics), IFN-γ stimulated HT1080 STAT1-GFP cells
Type: cell-based
Settings: Homo sapiens, HT-1080, STAT1 translocation pathway
Summary of the method: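 IC50 derived from percent nuclear STAT1-GFP translocation, computed from nuclear minus cytoplasmic GFP intensity against untreated baseline and DMSO-stimulated control. Stable HT1080 STAT1-GFP cells received compound (0.003–10 μM, 0.1% DMSO) 30 min ahead of a 2 h 100 ng/ml IFN-γ stimulus, then fixation and Hoechst nuclear masking.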

Going from CC(C)Oc1ccc(Nc2ncc3ccn(-c4ccc(C#N)cc4)c3n2)cc1 [Example 96, 4-[2-(4-Isopropoxy-phenylamino)-pyrrolo[2,3-d]pyrimidin-7-yl]-benzonitrile] to Cc1ccc(Nc2ncc3ccn(-c4ccc(C(=O)N5CCOCC5)cc4)c3n2)cn1 [Example 238, {4-[2-(6-Methyl-pyridin-3-ylamino)-pyrrolo[2,3-d]pyrimidin-7-yl]-phenyl}-morpholin-4-yl-methanone], the pIC50 rises from 4.58 to 6.11 (1.53 log units). The second is the more potent here.

Compared with COc1cc(Nc2ncc3ccn(-c4ccc(C(=O)N5CCOCC5)c(F)c4)c3n2)ccc1F [Example 151, {2-Fluoro-4-[2-(4-fluoro-3-methoxy-phenylamino)-pyrrolo[2,3-d]pyrimidin-7-yl]-phenyl}-morpholin-4-yl-methanone], Cc1cc(Nc2ncc3ccn(-c4ccc(C(=O)N5CCOCC5)c(F)c4)c3n2)nn1C [Example 311, {4-[2-(1,5-Dimethyl-1H-pyrazol-3-ylamino)-pyrrolo[2,3-d]pyrimidin-7-yl]-2-fluoro-phenyl}-morpholin-4-yl-methanone] is 0.79 log units lower in pIC50: 6.64 for the first, 5.85 for the second.

COCc1ccc(Nc2ncc3ccn(-c4cc(F)c(CN5CCS(=O)(=O)CC5)c(F)c4)c3n2)cc1 [Example 184, {7-[4-(1,1-Dioxido-thiomorpholin-4-ylmethyl)-3,5-difluoro-phenyl]-7H-pyrrolo[2,3-d]pyrimidin-2-yl}-(4-methoxymethyl-phenyl)-amine] and COCc1c(F)cc(-n2ccc3cnc(Nc4ccc(N5CCN(C)CC5)nc4)nc32)cc1F [Example 446, [7-(3,5-Difluoro-4-methoxymethyl-phenyl)-7H-pyrrolo[2,3-d]pyrimidin-2-yl]-[6-(4-methyl-piperazin-1-yl)-pyridin-3-yl]-amine] are within 0.2 log units of each other in pIC50: 7.46 for the first, 7.30 for the second.

CN1CCN(C(=O)c2cccc(Nc3ncc4ccn(-c5cc(F)c(CN6CCOCC6)c(F)c5)c4n3)c2)CC1 [Example 203, {3-[7-(3,5-Difluoro-4-morpholin-4-ylmethyl-phenyl)-7H-pyrrolo[2,3-d]pyrimidin-2-ylamino]-phenyl}-(4-methyl-piperazin-1-yl)-methanone] and Cc1ccc(Nc2ncc3ccn(-c4cc(F)c(CN5CCOCC5)c(F)c4)c3n2)cc1CN1CCNCC1 [Example 332, [7-(3,5-Difluoro-4-morpholin-4-ylmethyl-phenyl)-7H-pyrrolo[2,3-d]pyrimidin-2-yl]-(4-methyl-3-piperazin-1-ylmethyl-phenyl)-amine] are within 0.2 log units of each other in pIC50: 6.38 for the first, 6.43 for the second.

Compared with Cc1ccc(Nc2ncc3ccn(-c4ccc(C(=O)N5CCN(CCO)CC5)cc4)c3n2)cc1C [Example 300, {4-[2-(3,4-Dimethyl-phenylamino)-pyrrolo[2,3-d]pyrimidin-7-yl]-phenyl}-[4-(2-hydroxy-ethyl)-piperazin-1-yl]-methanone], Cn1cc(Nc2ncc3ccn(-c4ccc(CC(=O)N5CCOCC5)cc4)c3n2)cn1 [Example 301, 2-{4-[2-(1-Methyl-1H-pyrazol-4-ylamino)-pyrrolo[2,3-d]pyrimidin-7-yl]-phenyl}-1-morpholin-4-yl-ethanone] is 1.61 log units higher in pIC50: 5.69 for the first, 7.30 for the second.

System: JAK2-dependent nuclear translocation of STAT5-GFP in U-2 OS osteosarcoma cells
Test: STAT5 nuclear translocation assay (Cellomics), rhEpo stimulated U-2 OS STAT5-GFP cells
Type: cell-based
Settings: Homo sapiens, U2OS; STAT5 translocation pathway
Summary of the method: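 U-2 OS cells stably expressing STAT5a-GFP and EpoR pre-treated with compound (final 10 μM to 0.003 μM, 0.1% DMSO) for 30 min at 37° C., then stimulated 1 h with 5 U/ml rhEpo. Nuclear-cytoplasmic GFP differential quantified by automated imaging (≥1000 cells/well, Hoechst nuclear mask). IC50 from % translocation normalized to untreated and DMSO-stimulated controls.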

Cc1ccc(Nc2ncc3ccn(-c4cc(F)c(CN5CCOCC5)c(F)c4)c3n2)cc1CN1CCNCC1 [Example 332, [7-(3,5-Difluoro-4-morpholin-4-ylmethyl-phenyl)-7H-pyrrolo[2,3-d]pyrimidin-2-yl]-(4-methyl-3-piperazin-1-ylmethyl-phenyl)-amine] and Fc1cc(-n2ccc3cnc(Nc4ccnc(CN5CCNCC5)c4)nc32)cc(F)c1CN1CCOCC1 [Example 372, [7-(3,5-Difluoro-4-morpholin-4-ylmethyl-phenyl)-7H-pyrrolo[2,3-d]pyrimidin-2-yl]-(2-piperazin-1-ylmethyl-pyridin-4-yl)-amine] are within 0.2 log units of each other in pIC50: 7.14 for the first, 7.24 for the second.

Compared with C[C@@H]1CN(c2ccc(Nc3ncc4ccn(-c5ccc(NS(C)(=O)=O)cc5)c4n3)cn2)C[C@H](C)N1 [Example 380, N-(4-{2-[6-(cis-3,5-Dimethyl-piperazin-1-yl)-pyridin-3-ylamino]-pyrrolo[2,3-d]pyrimidin-7-yl}-phenyl)-methanesulfonamide], COCc1c(F)cc(-n2ccc3cnc(Nc4ccc(N5CCN(C)CC5)nc4)nc32)cc1F [Example 446, [7-(3,5-Difluoro-4-methoxymethyl-phenyl)-7H-pyrrolo[2,3-d]pyrimidin-2-yl]-[6-(4-methyl-piperazin-1-yl)-pyridin-3-yl]-amine] is 1.55 log units higher in pIC50: 7.34 for the first, 8.89 for the second. The second is the more potent here.

Going from Cc1ccc(Nc2ncc3ccn(-c4cc(F)c(CN5CCNC(=O)C5)c(F)c4)c3n2)cc1CN1CCNCC1 [Example 382, 4-{2,6-Difluoro-4-[2-(4-methyl-3-piperazin-1-ylmethyl-phenylamino)-pyrrolo[2,3-d]pyrimidin-7-yl]-benzyl}-piperazin-2-one] to CC1(C)NCCN(c2cc(Nc3ncc4ccn(-c5cc(F)c(CN6CCOCC6)c(F)c5)c4n3)ccn2)C1=O [Example 503, 1-{4-[7-(3,5-Difluoro-4-morpholin-4-ylmethyl-phenyl)-7H-pyrrolo[2,3-d]pyrimidin-2-ylamino]-pyridin-2-yl}-3,3-dimethyl-piperazin-2-one], the pIC50 rises from 6.92 to 7.56 (0.64 log units). The second is the more potent here.

With CN1CCN(c2ccc(Nc3ncc4ccn(-c5cc(F)c(CN6CCS(=O)(=O)CC6)c(F)c5)c4n3)nc2)CC1 [Example 440, {7-[4-(1,1-Dioxido-thiomorpholin-4-ylmethyl)-3,5-difluoro-phenyl]-7H-pyrrolo[2,3-d]pyrimidin-2-yl}-[5-(4-methyl-piperazin-1-yl)-pyridin-2-yl]-amine] the pIC50 was 7.21.
